The subject of data set [1] is phosphorylation of MAP kinase (ERK) in murine colon 26 (C26) carcinoma cells. Put plainly: Cellular inhibition of ERK phosphorylation, C26ELSA (pERK ELISA format). In kind it is cell-based. The note with it: Mus musculus, 1 h, C26 cells treated with test compound for one hour at 37° C. As to the method:
MEK inhibitors were evaluated by determining their ability to inhibit phosphorylation of MAP kinase (ERK) in murine colon 26 (C26) carcinoma cells. Since ERK1 and ERK2 represent the only known substrates for MEK1and MEK2, the measurement of inhibition of ERK phosphorylation in cells provides direct read out of cellular MEK inhibition by the compounds of the invention. Detection of phosphorylation of ERK was carried out either by Western blot or ELISA format. Briefly, the assays involve treatment of exponentially growing C26 cells with varying concentrations of the test compound (or vehicle control) for one hour at 37° C. For Western blot assay, cells were rinsed free of compound/vehicle and lysed in a solution containing 70 mM NaCl, 50 mM glycerol phosphate, 10 mM HEPES, pH 7.4, 1% Triton X-100, 1 mM Na3VO4, 100 μM PMSF, 10 μM leupeptin and 10 μM pepstatin. Supernatants were then subjected to gel electrophoresis and hybridized to a primary antibody recognizing dually phosphorylated ERK1 and ERK2. To evaluate total MAPK levels, blots were subsequently ‘stripped’ and re-probed with a 1:1 mixture of polyclonal antibodies recognizing unphosphorylated ERK1 and ERK2. For pERK ELISA assay, pERK TiterZyme Enzyme immunometric Assay kits were acquired from Assay Designs, Inc (Ann Arbor, Mich.). Briefly, cells were harvested in lysis solution containing 50 mM β-glycerophosphate, 10 mM HEPES, ph7.4, 70 mM NaCl, 2 mM EDTA and 1% SDS and protein lysates were diluted 1:15 with supplied Assay buffer prior to the execution of the assay. The subsequent steps were carried out essentially as recommended by the manufacturer.
The inhibition data generated by the above protocols is disclosed in Table I. If several concentrations of inhibitor were tested, IC50 values (the concentration which gives 50% inhibition) were determined graphically from the dose response curve for % inhibition. Otherwise, percent inhibitions at measured concentrations are reported.

From patent US7273877B2, “5-substituted-4-[(substituted phenyl) amino]-2-pyridone derivatives” (Warner-Lambert Company, LLC, priority 2003, dated 2007) come the findings set out here.

As to `Cn1cc(C(=O)O)c(Nc2ccc3c(c2)CCC3)cc1=O` [Example 64, 4-(Indan-5-ylamino)-1-methyl-6-oxo-1,6-dihydro-pyridine-3-carboxylic acid], the melting point – broadly, the temperature, or range, at which the solid turns liquid – was 218 to 220 °C. As to `CSc1ccc(Nc2cc(=O)n(C)cc2C(=O)NCCCO)c(F)c1` [Example 85, 4-(2-Fluoro-4-methylsulfanyl-phenylamino)-1-methyl-6-oxo-1,6-dihydro-pyridine-3-carboxylic acid (3-hydroxy-propyl)-amide], the IC50 (commonly the point on the concentration scale where inhibition reaches its midpoint) in data set [1] came out at 150 nM. This lies in the sub-micromolar range. Take `Cn1cc(C(=O)NOCCO)c(Nc2ccc(Br)cc2F)cc1=O` [Example 38, 4-(4-Bromo-2-fluoroanilino)-N-(2-hydroxyethoxy)-1-methyl-6-oxo-1,6-dihydro-3-pyridinecarboxamide]: the melting point lay in the range of 124 to 128 °C.

Consider `O=C(NCCCO)c1cn(CCO)c(=O)cc1Nc1ccc(I)cc1F` [Example 23, 4-(2-Fluoro-4-iodoanilino)-1-(2-hydroxyethyl)-N-(3-hydroxypropyl)-6-oxo-1,6-dihydro-3-pyridinecarboxamide], for which the melting point is 174 to 176 °C. Compound `NC(=O)c1cn(CCCO)c(=O)cc1Nc1ccc(I)cc1F` [Example 32, 4-(2-Fluoro-4-iodoanilino)-1-(3-hydroxypropyl)-6-oxo-1,6-dihydro-3-pyridinecarboxamide] showed a melting point of 220 to 223 °C. `Cn1cc(C(N)=O)c(Nc2ccc(C#N)cc2F)cc1=O` [Example 54, 4-(4-Cyano-2-fluoroanilino)-1-methyl-6-oxo-1,6-dihydro-3-pyridinecarboxamide] yielded a melting point of 261 to 266 °C. The same measure, in the same setting: then `Cn1cc(C(=O)O)c(Nc2ccc(I)cc2F)cc1=O` [Example 55, 4-(2-fluoro-4-iodoanilino)-1-methyl-6-oxo-1,6-dihydro-3-pyridinecarboxylic acid], with 254 to 257 °C; and `CC(O)CNC(=O)c1cn(C)c(=O)cc1Nc1ccc(I)cc1F` (centres unmarked) [Example 50, 4-(2-Fluoro-4-iodoanilino)-N-(2-hydroxypropyl)-1-methyl-6-oxo-1,6-dihydro-3-pyridinecarboxamide], with 161 to 166 °C. With `CCc1ccc(Nc2cc(=O)[nH]cc2C(=O)NCCCO)c(F)c1` [Example 16, 4-(4-Ethyl-2-fluoroanilino)-N-(3-hydroxypropyl)-6-oxo-1,6-dihydro-3-pyridinecarboxamide], the melting point lay within 231 to 233 °C. `COCCOCCn1cc(C(N)=O)c(Nc2ccc(I)cc2F)cc1=O` [Example 29, 4-(2-Fluoro-4-iodoanilino)-1-[2-(2-methoxyethoxy)ethyl]-6-oxo-1,6-dihydro-3-pyridinecarboxamide] showed a melting point of 114 to 116 °C. Regarding `C#Cc1ccc(Nc2cc(=O)[nH]cc2C(=O)NCCCO)c(F)c1` [Example 15, 4-(4-Ethynyl-2-fluoroanilino)-N-(3-hydroxypropyl)-6-oxo-1,6-dihydro-3-pyridinecarboxamide], the melting point lay in the range of 249 to 252 °C. `NC(=O)c1cn(CCO)c(=O)cc1Nc1ccc(I)cc1F` [Example 22, 4-(2-Fluoro-4-iodoanilino)-1-(2-hydroxyethyl)-6-oxo-1,6-dihydro-3-pyridinecarboxamide] came in with a melting point of 212 to 215 °C. Consider `C#Cc1ccc(Nc2cc(=O)[nH]cc2C(=O)NCCO)c(F)c1` [Example 12, 4-(4-Ethynyl-2-fluoroanilino)-N-(2-hydroxyethyl)-6-oxo-1,6-dihydro-3-pyridinecarboxamide], for which the melting point was 265 to 273 °C. On to `Cn1cc(C(=O)O)c(Nc2ccc(Cl)c(Cl)c2Cl)cc1=O` [Example 65, 1-Methyl-6-oxo-4-(2,3,4-trichloro-phenylamino)-1,6-dihydro-pyridine-3-carboxylic acid], for which the melting point was in the range of 258 to 261 °C. As to `CCn1cc(C(N)=O)c(Nc2ccc(I)cc2F)cc1=O` [Example 27, 1-Ethyl-4-(2-fluoro-4-iodoanilino)-6-oxo-1,6-dihydro-3-pyridinecarboxamide], the melting point lay in the range of 260 to 262 °C. Take `Cn1cc(C(N)=O)c(Nc2ccc(Cl)c(Cl)c2)cc1=O` [Example 56, 4-(3,4-Dichloro-phenylamino)-1-methyl-6-oxo-1,6-dihydro-pyridine-3-carboxylic acid amide]: the melting point is above 250 °C. The compound `N#CCCCn1cc(C(N)=O)c(Nc2ccc(I)cc2F)cc1=O` [Example 26, 1-(3-Cyanopropyl)-4-(2-fluoro-4-iodoanilino)-6-oxo-1,6-dihydro-3-pyridinecarboxamide] displayed a melting point of 146 to 150 °C. Still for that read-out and setting: then `Cn1cc(C(=O)NCCCO)c(Nc2ccc(F)cc2F)cc1=O` [Example 34, 4-(2,4-Difluoroanilino)-N-(3-hydroxypropyl)-1-methyl-6-oxo-1,6-dihydro-3-pyridinecarboxamide], with 129 to 132 °C. Same read-out and setting: then `Cn1cc(C(=O)NOCCO)c(Nc2ccc(F)cc2F)cc1=O` [Example 33, 4-(2,4-Difluoroanilino)-N-(2-hydroxyethoxy)-1-methyl-6-oxo-1,6-dihydro-3-pyridinecarboxamide], with 232 to 238 °C; and `Cc1ccc(Nc2cc(=O)n(C)cc2C(=O)O)cc1C` [Example 63, 4-(3,4-Dimethyl-phenylamino)-1-methyl-6-oxo-1,6-dihydro-pyridine-3-carboxylic acid], with 238 to 242 °C. Compound `Cn1cc(C(=O)NCCO)c(Nc2ccc(I)cc2F)cc1=O` [Example 4, 4-(2-Fluoro-4-iodoanilino)-N-(2-hydroxyethyl)-1-methyl-6-oxo-1,6-dihydro-3-pyridinecarboxamide] came in with a melting point of 205 to 208 °C. `Cn1cc(C(N)=O)c(Nc2ccc3ccccc3c2)cc1=O` [Example 43, 1-Methyl-4-(2-naphthylamino)-6-oxo-1,6-dihydro-3-pyridinecarboxamide]: the melting point lay in the range of 254 to 257 °C. Compound `Cn1cc(C(=O)NCCCN)c(Nc2ccc(I)cc2F)cc1=O` [Example 53, N-(3-Aminopropyl)-4-(2-fluoro-4-iodoanilino)-1-methyl-6-oxo-1,6-dihydro-3-pyridinecarboxamide] gave a melting point of 201 to 206 °C. Take `Cn1cc(C(N)=O)c(Nc2ccc(C(F)(F)C(F)(F)C(F)(F)C(F)(F)F)cc2F)cc1=O`: the melting point is 112 to 118 °C.

`Cn1cc(C(=O)NCCCO)c(Nc2ccc(Br)cc2F)cc1=O` [Example 39, 4-(4-Bromo-2-fluoroanilino)-N-(3-hydroxypropyl)-1-methyl-6-oxo-1,6-dihydro-3-pyridinecarboxamide] displayed a melting point of 167 to 170 °C. In the case of `CCc1ccc(Nc2cc(=O)n(C)cc2C(N)=O)c(F)c1` [Example 18, 4-(4-Ethyl-2-fluoroanilino)-1-methyl-6-oxo-1,6-dihydro-3-pyridinecarboxamide], the melting point was in the range of 268 to 272 °C. `NC(=O)c1cn(CC(=O)O)c(=O)cc1Nc1ccc(I)cc1F` [Example 25] registered a melting point of 296 to 300 °C. Compound `Cn1cc(C(=O)NC(CO)CO)c(Nc2ccc(I)cc2F)cc1=O` [Example 46, 4-(2-Fluoro-4-iodoanilino)-N-[2-hydroxy-1-(hydroxymethyl)ethyl]-1-methyl-6-oxo-1,6-dihydro-3-pyridinecarboxamide] gave a melting point of 93 to 98 °C. On to `CCc1ccc(Nc2cc(=O)[nH]cc2C(=O)NCCO)c(F)c1` [Example 13], for which the melting point was 256 to 258 °C. Still for that read-out and setting: next, `CN(C)C(=O)c1cn(C)c(=O)cc1Nc1ccc(I)cc1F` [Example 52, 4-(2-Fluoro-4-iodoanilino)-N,N,1-trimethyl-6-oxo-1,6-dihydro-3-pyridinecarboxamide]: 106 to 111 °C; `Cc1ccc(Nc2cc(=O)n(C)cc2C(=O)NCCCO)c(F)c1` [Example 36, 4-(2-Fluoro-4-methylanilino)-N-(3-hydroxypropyl)-1-methyl-6-oxo-1,6-dihydro-3-pyridinecarboxamide]: 142 to 145 °C; `Cc1ccc(Nc2cc(=O)n(C)cc2C(=O)NOCCO)c(F)c1` [Example 35, 4-(2-Fluoro-4-methylanilino)-N-(2-hydroxyethoxy)-1-methyl-6-oxo-1,6-dihydro-3-pyridinecarboxamide]: 110 to 115 °C. Same read-out and setting: next, `CCCn1cc(C(N)=O)c(Nc2ccc(I)cc2F)cc1=O` [Example 28, 4-(2-Fluoro-4-iodoanilino)-6-oxo-1-propyl-1,6-dihydro-3-pyridinecarboxamide]: 218 to 220 °C; `CC(CO)NC(=O)c1cn(C)c(=O)cc1Nc1ccc(I)cc1F` (centres unmarked) [Example 49, 4-(2-Fluoro-4-iodoanilino)-N-(2-hydroxy-1-methylethyl)-1-methyl-6-oxo-1,6-dihydro-3-pyridinecarboxamide]: 198 to 202 °C.

Turning to `Cn1cc(C(=O)NCC(O)CO)c(Nc2ccc(I)cc2F)cc1=O` (centres unmarked) [Example 45, N-(2,3-Dihydroxypropyl)-4-(2-fluoro-4-iodoanilino)-1-methyl-6-oxo-1,6-dihydro-3-pyridinecarboxamide], the melting point was in the range of 96 to 101 °C.
